Consider seven compounds from PubChem BioAssay (NCI).

SMILES strings stand for the structures. Where “and” joins values, the source holds several entries; their conditions need not be identical. Equal entries are not always repeated.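 Compound exposure: 48 hours, 5 concentrations, 96-well plates. Abbreviation: GI50, concentration required for 50% inhibition of growth. TGI: total growth inhibition.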

Common to all, as to experiment: NCI anticancer screen, dose series, 48 h
The subject of assay [1] is MDA-MB-231 breast.
Assay [2] has as its system A498 renal.
The subject of assay [3] is SNB-19 CNS.
Assay [4] concerns EKVX NSCLC.
In assay [5] the test system is BT-549 breast.
The subject of assay [6] is NCI-H460 lung.
Assay [7] deals with U251 CNS.
The test system of assay [8] is SNB-75 CNS.
The test system of assay [9] is NCI-H522 lung.
Assay [10] deals with SN12C renal.

In the case of `NCC(=O)CCC(=O)O`, the GI50 in assay [1], in assay [2], in assay [3], in [4], in assay [5] and in [6] was more than 100 µM each time. For the same compound, the GI50 in assay [7], in assay [8], in assay [9] and in [10] was more than 100 µM in each case. The TGI in assay [1], in [2], in [3], in assay [4], in [5] and in assay [6] was more than 100 µM throughout. Also, the TGI in [7], in [8], in assay [9] and in assay [10] was more than 100 µM in each case.
As to `COc1cc2c3c(n(C)c(=O)c2cc1OC)-c1cc2c(cc1/C3=C\[C@@H](N)CCCCN)OCO2`, the GI50 in [1] is 1.54 µM; in assay [2], 5.14 µM; in [3], 1.46 µM; in [4] it was 4.56 µM; in assay [5] it was 4.52 µM; in assay [6], 0.707 µM. Moreover, the GI50 was less than 0.0209 µM in assay [7], 0.985 µM in assay [8], 1.37 µM in [9] and 0.46 µM in assay [10]. The TGI in [1] is more than 48.5 µM; in assay [2], 33.9 µM; in assay [3], more than 100 µM; in assay [4], 75.9 µM; in [5] it was 28.3 µM; in assay [6], more than 82.9 µM. In addition, the TGI in [7] is 7.41 µM; in assay [8] it was more than 41.3 µM; in [9], more than 23.2 µM; in [10], 6.95 µM.
In the case of `COC(=O)[C@H](Cc1ccccc1)NC(=O)[C@@H](OC)[C@@H]1Cc2cc3cc(OC4CC(OC5CC(O)C(O)C(C)O5)C(O)C(C)O4)c(C)c(O)c3c(O)c2C(=O)[C@H]1OC1CC(OC2CC(OC3CC(C)(O)C(O)C(C)O3)C(O)C(C)O2)C(O)C(C)O1` (some centres undefined), the GI50 was 0.0305 µM in assay [1]; 0.024 µM in assay [2]; 0.0173 µM in assay [3]; 0.0393 µM in assay [4]; 0.00713 µM in assay [5]; 0.0197 µM in assay [6]. Further, the GI50 in [7] is 0.0257 µM; in assay [8], 0.0186 µM; in assay [9] it was 0.0064 µM; in assay [10] it was 0.00991 µM. Besides, the TGI in [1] was 9.09 µM; in assay [2] it was 0.0626 µM; in assay [3], more than 14.3 µM; in [4], more than 14.3 µM; in assay [5] it was 0.0574 µM; in [6], more than 14.3 µM. Also, the TGI in assay [7] was more than 14.3 µM; in assay [8], 0.0575 µM; in [9], 1.72 µM; in assay [10] it was more than 14.3 µM.
As to `C=C(C(=O)OC)[C@@H]1C[C@@H](O)[C@]2(C)CC/C=C(\C)CCC[C@H](C)[C@H](O)C1O2`, the GI50 in assay [1] was 58.5 µM; in assay [2], 65.9 µM; in [3], 79.3 µM; in [4], 55.9 µM; in assay [5] it was 29.5 µM; in [6], 75.5 µM. Further, the GI50 is 51.4 µM in assay [7], more than 100 µM in assay [8], 26.1 µM in assay [9] and 77.9 µM in assay [10]. For the same compound, the TGI in [1] was more than 100 µM; in assay [2], more than 100 µM; in [3], more than 100 µM; in [4], more than 100 µM; in assay [5], 79.1 µM; in assay [6], more than 100 µM. Besides, the TGI in [7], in [8], in assay [9] and in [10] was more than 100 µM throughout.
As to `Oc1ccc(-c2nc3ccc4[nH]ncc4c3c3c2CCCC3)c2cccnc12`, the GI50 was 0.423 µM in assay [1]; 0.779 µM in assay [2]; 0.164 µM in [3]; 0.329 µM in [4]; 0.421 µM in assay [5]; 0.122 µM in [6]. Also, the GI50 in assay [7] is 0.143 µM; in [8] it was 0.132 µM; in assay [9], 0.119 µM; in [10] it was 0.206 µM. Further, the TGI in assay [1] was found to be 6.79 µM; in assay [2], 2.19 µM; in assay [3], 13.1 µM; in assay [4], 2.24 µM; in assay [5], 2.58 µM; in [6] it was 0.863 µM. Further, the TGI in assay [7] is 5.97 µM; in assay [8], 1.06 µM; in [9] it was 5.2 µM; in assay [10], 6.79 µM.
Regarding `COc1ccc(Cn2cc(Cn3c(=O)c(-c4nc5ccccc5[nH]4)cc4ccccc43)nn2)c(OC)c1OC`, the GI50 in assay [1] was 0.292 µM and 0.451 µM; in [2], 0.118 µM; in assay [3], 0.423 µM; in assay [4] it was 0.904 µM and 0.605 µM; in assay [5], 0.502 µM; in [6], 0.18 µM. For the same compound, the GI50 in assay [7] is 0.308 µM and 0.183 µM; in assay [8], 0.0354 µM; in [9] it was 0.148 µM and 0.176 µM; in assay [10], 0.217 µM and 0.426 µM. The TGI in assay [1] was 1.54 µM and 3.07 µM; in assay [2], 0.607 µM; in assay [3] it was more than 100 µM; in [4], 50 µM and > 100 µM; in [5], 1.52 µM; in assay [6] it was 0.893 µM. Further, the TGI is 8.29 µM and 17.6 µM in assay [7]; 0.432 µM in assay [8]; 50 µM and > 100 µM in assay [10].
Regarding `O=C(Nc1ccccc1F)c1ccc(NC2=C(Cl)C(=O)N(Cc3ccccc3)C2=O)cc1`, the GI50 in assay [1] is 2.8 µM; in assay [2], 16.6 µM; in assay [3] it was 11.6 µM; in assay [4], 16.6 µM; in [5] it was 3.13 µM; in [6] it was 6.6 µM. The GI50 is 13.3 µM in assay [7], 16.5 µM in [8], 2.21 µM in assay [9] and 1.98 µM in assay [10]. Further, the TGI in [1] worked out at 13.8 µM; in [2] it was 30.2 µM; in assay [3] it was 23.8 µM; in assay [4], 30.2 µM; in assay [5], 9.62 µM; in assay [6] it was 19.3 µM. In addition, the TGI in [7] was 26 µM; in [8], 30 µM; in [9], 5.34 µM; in assay [10], 7.93 µM.
